According to paper PMC9292215 (Clinical Pharmacology and Therapeutics, 2021):
Marks after values point to notes of the source that are not given here.

How the values were obtained:
[1] = Phase I SAD/FI/MAD study: adverse events; assay type: in vivo, human
[2] = Plasma pharmacokinetics of BIA 10-2474 and metabolites; assay type: in vivo, human; conditions: for Cmax / Tmax / AUC(0-inf) / AUC(0-t) / clearance / half-life: both, human, plasma, oral; for AUC(0-t): AUC0–t; for clearance: CL
[3] = MAD 50 mg, moderate, serious, participant with fatal outcome

CN(C(=O)n1cnc(-c2ccc[n+]([O-])c2)c1)C1CCCCC1 [BIA 10-2474, 3-(1-(cyclohexyl(methyl)carbamoyl)-1H-imidazol-4-yl)pyridine 1-oxide]
Any AE, n (%) ([1]; 2.5 mg once daily 10 days, N = 6): 1 (16.7%) | Any AE, n (%) ([1]; 5 mg once daily 10 days, N = 6): 1 (16.7%) | Any AE, n (%) ([1]; 10 mg once daily 10 days, N = 6): 3 (50%) | duration of blurred vision ([1]; 10 mg/day, mild): < 2.5 h | participants with blurred vision ([1]; 10 mg/day, two participants): 2.3% | Any AE, n (%) ([1]; 20 mg once daily 10 days, N = 6): 4 (66.7%) | Abdominal pain, No. events ([1]; MAD 50 mg): 1 | Asthenia, No. events ([1]; MAD 50 mg): 1 | Blurred vision, No. events ([1]; MAD 50 mg): 1 | Diarrhea, No. events ([1]; MAD 50 mg): 2 | Dizziness, No. events ([1]; MAD 50 mg): 2 | Nausea, No. events ([1]; MAD 50 mg): 1 | Headache, No. events ([1]; MAD 50 mg, 3 moderate): 2 + 3^# | Hot Flush, No. events ([1]; MAD 50 mg, moderate): 1^# | Soft feces, No. events ([1]; MAD 50 mg, moderate): 1^# | Diplopia, No. events ([1]; MAD 50 mg, moderate, serious): 1^#§ | Transient global amnesia, No. events ([1]; MAD 50 mg, moderate, serious): 1^#§ | Dysarthria, No. events [1, 3]: 1^#§& | Feeling drunk, No. events [1, 3]: 1^#§& | Vitreous floaters, No. events ([1]; MAD 50 mg, serious): 1^§* | Hemiparesis, No. events ([1]; MAD 50 mg, severe, serious): 1^£§ | Nervous system disorder, No. events ([1]; MAD 50 mg, severe, serious, hospitalization): 1^£§H | participants reporting treatment-emergent adverse effects ([1]; any dose of BIA 10-2474, 15 participants): 17.9% | participants with CNS (serious) adverse events ([1]; repeated 50 mg (up to day 5), one with fatal outcome): five of six | participants with headache ([1]; single 40 mg, 10 and 20 mg/day for 10 days, three participants): 3.6% | Any AE, n (%) ([1]; single dose 0.25 mg, N = 6): 0 | Any AE, n (%) ([1]; single dose 1.25 mg, N = 6): 0 | Any AE, n (%) ([1]; single dose 2.5 mg, N = 6): 1 (16.7%) | Any AE, n (%) ([1]; single dose 5 mg, N = 6): 0 | Any AE, n (%) ([1]; single dose 10 mg, N = 6): 1 (16.7%) | Any AE, n (%) ([1]; single dose 20 mg, N = 6): 0 | Any AE, n (%) ([1]; single dose 40 mg (SAD and FI combined), N = 18): 5 (27.8%) | Any AE, n (%) ([1]; single dose 100 mg, N = 6): 1 (16.7%) | tolerability ([1]; up to 100 mg single dose and up to 20 mg once daily for 10 days): well tolerated | V/F ([2]; 2.5 mg once daily, Day 1): 56.1 (18.7) L | Racc ([2]; 2.5 mg once daily, Day 10): 1.15 | V/F ([2]; 2.5 mg once daily, Day 10): 57.0 (26.0) L | V/F ([2]; 5 mg once daily, Day 1): 63.2 (20.4) L | Racc ([2]; 5 mg once daily, Day 10): 1.31 | V/F ([2]; 5 mg once daily, Day 10): 65.3 (17.4) L | V/F ([2]; 10 mg once daily, Day 1): 69.0 (22.8) L | Racc ([2]; 10 mg once daily, Day 10): 1.59 | V/F ([2]; 10 mg once daily, Day 10): 61.4 (17.9) L | V/F ([2]; 20 mg once daily, Day 1): 66.3 (7.34) L | Racc ([2]; 20 mg once daily, Day 10): 1.57 | V/F ([2]; 20 mg once daily, Day 10): 64.1 (15.4) L | V/F ([2]; 50 mg once daily, Day 1): 67.9 (9.78) L | accumulation ratio, based on AUC0–24h ([2]; Day 10): < 2 | Overall fold increase in AUC0–τ ([2]; MAD Day 1): 19.6 | Overall fold increase in Cmax ([2]; MAD Day 1): 14.5 | Fold increase in AUC0–τ ([2]; MAD Day 1, 2.5 to 5 mg): 1.8 | Fold increase in Cmax ([2]; MAD Day 1, 2.5 to 5 mg): 1.7 | Fold increase in AUC0–τ ([2]; MAD Day 1, 5 to 10 mg): 2.0 | Fold increase in Cmax ([2]; MAD Day 1, 5 to 10 mg): 1.9 | Fold increase in AUC0–τ ([2]; MAD Day 1, 10 to 20 mg): 2.1 | Fold increase in Cmax ([2]; MAD Day 1, 10 to 20 mg): 2.0 | Fold increase in AUC0–τ ([2]; MAD Day 1, 20 to 50 mg): 2.6 | Fold increase in Cmax ([2]; MAD Day 1, 20 to 50 mg): 2.3 | Overall fold increase in AUC0–τ ([2]; MAD Day 10): 8.84 | Overall fold increase in Cmax ([2]; MAD Day 10): 7.53 | Fold increase in AUC0–τ ([2]; MAD Day 10, 2.5 to 5 mg): 1.7 | Fold increase in Cmax ([2]; MAD Day 10, 2.5 to 5 mg): 1.6 | Fold increase in AUC0–τ ([2]; MAD Day 10, 5 to 10 mg): 2.4 | Fold increase in Cmax ([2]; MAD Day 10, 5 to 10 mg): 2.2 | Fold increase in AUC0–τ ([2]; MAD Day 10, 10 to 20 mg): 2.1 | Fold increase in Cmax ([2]; MAD Day 10, 10 to 20 mg): 2.1 | Fold increase in Cmax ([2]; SAD, 1.25 to 2.5 mg): 1.9 | Fold increase in AUC0–t ([2]; SAD, 2.5 to 5 mg): 2.4 | Fold increase in Cmax ([2]; SAD, 2.5 to 5 mg): 2.7 | Fold increase in AUC0–t ([2]; SAD, 5 to 10 mg): 2.1 | Fold increase in Cmax ([2]; SAD, 5 to 10 mg): 1.7 | Fold increase in AUC0–t ([2]; SAD, 10 to 20 mg): 2.8 | Fold increase in Cmax ([2]; SAD, 10 to 20 mg): 2.1 | Fold increase in AUC0–t ([2]; SAD, 20 to 40 mg): 2.2 | Fold increase in Cmax ([2]; SAD, 20 to 40 mg): 2.6 | Fold increase in AUC0–t ([2]; SAD, 40 to 100 mg): 2.6 | Fold increase in Cmax ([2]; SAD, 40 to 100 mg): 2.2 | Overall fold increase in AUC0–t ([2]; SAD, over the dosage range): 19.6 | Cmax ([2]; 0.25 mg, single dose 0.25 mg): 3.1 ng/mL | Tmax ([2]; 0.25 mg, single dose 0.25 mg): 2 h | AUC(0-inf) ([2]; 1.25 mg): 142 ng·h/mL | AUC(0-t) ([2]; 1.25 mg, single dose 1.25 mg): 98 ng·h/mL | clearance ([2]; 1.25 mg, single dose 1.25 mg): 155 mL/min | Cmax ([2]; 1.25 mg, single dose 1.25 mg): 16.2 ng/mL | half-life ([2]; 1.25 mg, t1/2, single dose 1.25 mg): 392 min | Tmax ([2]; 1.25 mg, single dose 1.25 mg): 1.5 h | AUC(0-inf) ([2]; 2.5 mg): 338 ng·h/mL | AUC(0-t) ([2]; 2.5 mg, single dose 2.5 mg): 289 ng·h/mL | clearance ([2]; 2.5 mg, single dose 2.5 mg): 131 mL/min | Cmax ([2]; 2.5 mg, single dose 2.5 mg): 31.2 ng/mL | half-life ([2]; 2.5 mg, t1/2, single dose 2.5 mg): 422 min | Tmax ([2]; 2.5 mg, single dose 2.5 mg): 1.5 h
